Assay results: ChEMBL document CHEMBL2396617, “Activity-lipophilicity relationship studies on P-gp ligands designed as simplified tariquidar bulky fragments” (Bioorg Med Chem Lett, 2013)
pEC50: −log10 of the molar value. Calls of active or inactive are those of the source. The calls are words filed in the database; no cut-off is given here.

Key:
[1] = biological target: T1, Broad substrate specificity ATP-binding cassette transporter ABCG2 (Homo sapiens, UniProt Q9UNQ0); experiment: Inhibition of BCRP (unknown origin) expressed in MDCK cells assessed as reduction of […] transport after 30 mins by fluorescence assay; type: cell-based
T1 sequence (Q9UNQ0 whole entry): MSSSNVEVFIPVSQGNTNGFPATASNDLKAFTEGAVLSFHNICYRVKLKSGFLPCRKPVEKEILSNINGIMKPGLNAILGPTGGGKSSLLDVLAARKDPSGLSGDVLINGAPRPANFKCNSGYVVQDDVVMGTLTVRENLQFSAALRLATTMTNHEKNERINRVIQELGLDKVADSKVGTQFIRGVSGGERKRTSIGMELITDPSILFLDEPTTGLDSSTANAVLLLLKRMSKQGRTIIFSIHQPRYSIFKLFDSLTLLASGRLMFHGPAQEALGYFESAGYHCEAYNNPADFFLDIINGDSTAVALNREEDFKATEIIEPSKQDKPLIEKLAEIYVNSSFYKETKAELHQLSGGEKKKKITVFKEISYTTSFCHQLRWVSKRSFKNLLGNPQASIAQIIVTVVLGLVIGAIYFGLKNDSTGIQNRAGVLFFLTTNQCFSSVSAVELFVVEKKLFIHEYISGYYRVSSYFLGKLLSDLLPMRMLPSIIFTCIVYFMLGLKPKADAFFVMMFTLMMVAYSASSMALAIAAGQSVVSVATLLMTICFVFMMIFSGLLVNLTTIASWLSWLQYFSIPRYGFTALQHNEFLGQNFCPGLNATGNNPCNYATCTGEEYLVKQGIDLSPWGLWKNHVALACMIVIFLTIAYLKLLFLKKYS

[2] = biological target: Multidrug resistance-associated protein 1 (Homo sapiens, UniProt P33527); experiment: Inhibition of MRP1 (unknown origin) expressed in MDCK cells assessed as reduction of calcein-AM transport after 30 mins by fluorescence assay; type: cell-based
Multidrug resistance-associated protein 1, sequence (P33527 whole entry): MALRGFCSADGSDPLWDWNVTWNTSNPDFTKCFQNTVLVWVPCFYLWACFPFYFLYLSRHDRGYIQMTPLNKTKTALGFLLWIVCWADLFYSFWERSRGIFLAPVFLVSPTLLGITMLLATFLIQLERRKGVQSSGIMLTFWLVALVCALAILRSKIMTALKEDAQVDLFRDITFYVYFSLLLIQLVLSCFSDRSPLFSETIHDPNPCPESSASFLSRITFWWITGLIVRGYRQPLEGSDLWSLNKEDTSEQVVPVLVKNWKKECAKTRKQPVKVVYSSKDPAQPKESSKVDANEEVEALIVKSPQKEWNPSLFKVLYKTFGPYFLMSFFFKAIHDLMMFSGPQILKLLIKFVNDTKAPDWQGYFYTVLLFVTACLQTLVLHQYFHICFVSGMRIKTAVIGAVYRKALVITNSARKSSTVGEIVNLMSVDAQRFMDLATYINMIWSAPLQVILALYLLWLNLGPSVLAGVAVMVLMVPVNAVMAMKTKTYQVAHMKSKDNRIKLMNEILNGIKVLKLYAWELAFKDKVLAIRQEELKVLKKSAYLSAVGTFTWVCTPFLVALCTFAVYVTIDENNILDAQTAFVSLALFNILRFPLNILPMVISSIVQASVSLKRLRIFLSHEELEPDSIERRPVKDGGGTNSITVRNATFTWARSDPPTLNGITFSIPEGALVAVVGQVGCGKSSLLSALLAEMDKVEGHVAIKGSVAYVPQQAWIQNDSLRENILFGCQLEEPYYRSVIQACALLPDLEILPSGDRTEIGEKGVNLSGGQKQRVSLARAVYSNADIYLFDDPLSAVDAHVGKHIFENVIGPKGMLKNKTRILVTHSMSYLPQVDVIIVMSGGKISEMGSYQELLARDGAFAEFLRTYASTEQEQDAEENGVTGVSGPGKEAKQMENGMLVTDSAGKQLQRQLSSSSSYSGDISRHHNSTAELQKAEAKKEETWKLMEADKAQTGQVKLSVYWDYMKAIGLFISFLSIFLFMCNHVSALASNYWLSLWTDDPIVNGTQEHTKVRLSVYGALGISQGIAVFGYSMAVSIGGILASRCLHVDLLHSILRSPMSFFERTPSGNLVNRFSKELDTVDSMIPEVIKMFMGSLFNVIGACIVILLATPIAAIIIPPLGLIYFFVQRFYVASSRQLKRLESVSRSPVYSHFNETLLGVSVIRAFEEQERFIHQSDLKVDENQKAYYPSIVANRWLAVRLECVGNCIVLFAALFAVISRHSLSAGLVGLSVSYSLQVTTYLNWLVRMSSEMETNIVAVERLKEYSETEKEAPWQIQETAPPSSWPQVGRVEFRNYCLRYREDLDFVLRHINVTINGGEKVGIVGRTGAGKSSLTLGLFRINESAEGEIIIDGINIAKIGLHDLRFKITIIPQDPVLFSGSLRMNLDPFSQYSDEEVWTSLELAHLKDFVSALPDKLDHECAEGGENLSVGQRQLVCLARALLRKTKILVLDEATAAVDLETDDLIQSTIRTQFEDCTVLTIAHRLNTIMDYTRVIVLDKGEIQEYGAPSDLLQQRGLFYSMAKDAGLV

[3] = P-glycoprotein-mediated transport in human Caco2 cells assessed as efflux ratio of apparent permeability from basolateral to apical over apical to basolateral after 120 mins; type: ADME, cell-based; conditions: caco-2, 2 h
[4] = Inhibition of P-glycoprotein (unknown origin) expressed in MDCK cells assessed as reduction of calcein-AM transport after 30 mins by fluorescence assay; type: cell-based, Homo sapiens
MDCK = experiment: Activation of ATPase activity of P-glycoprotein (unknown origin) expressed in MDCK cells assessed as reduction of reduction of ATP level after 2 hrs by luminescence assay; type: cell-based; conditions: Homo sapiens

| Compound | pEC50 [1] | pEC50 [2] | Ratio [3] | pEC50 [4] | Activity (MDCK) |
| --- | --- | --- | --- | --- | --- |
| COc1cc2c(cc1OC)CN(CCCCOc1ccc3ccccc3n1)CC2 | < 4.00 | < 4.00 | 4.2 | 5.37 | inactive |
| COc1cc2c(cc1OC)CN(CCCOc1ccc3ccccc3n1)CC2 | < 4.00 | < 4.00 | 4.4 | 5.21 | inactive |
| COc1cc2c(cc1OC)CN(C(=O)COc1ccc3ccccc3n1)CC2 | < 4.00 | < 4.00 |  | 4.17 | inactive |
| COc1cc2c(cc1OC)CN(CCCOc1ccnc3ccccc13)CC2 | < 4.00 | < 4.00 |  | 4.40 | inactive |
| COc1cc2c(cc1OC)CN(CCCCCOc1ccc3ccccc3n1)CC2 | < 4.00 | < 4.00 | 2.9 | 5.92 | inactive |
| COc1cc2c(cc1OC)CN(CCOc1ccc3ccccc3n1)CC2 | < 4.00 | < 4.00 | 4.6 | 5.89 | inactive |
